In brackets after ≈: the same amount, converted by molar mass.
How the values were obtained:
S. aureus = settings: cited from earlier work
E. coli ATCC 25922 = assay: Broth microdilution MIC / MBC assay, E. coli; assay type: cell-based; settings: Escherichia coli; for MIC: ATCC25922, 24 h, read-out: Antibacterial activity MIC; for MBC: ATCC25922, read-out: Antibacterial activity MBC
S. aureus ATCC 25923 = assay: Broth microdilution MIC / MBC assay, S. aureus; assay type: cell-based; settings: Staphylococcus aureus; for MIC: ATCC25923, 24 h, read-out: Antibacterial activity MIC; for MBC: ATCC25923, read-out: Antibacterial activity MBC

| Molecule | minimum inhibitory concentration (MIC) (S. aureus) [µM] | MIC (E. coli ATCC 25922) [µM] | MBC (E. coli ATCC 25922) [µM] | MIC (S. aureus ATCC 25923) [µM] | MBC (S. aureus ATCC 25923) [µM] |
| --- | --- | --- | --- | --- | --- |
| WRWRWR | 16 | – | – | – | – |
| Fc-WRWRW | 7 | – | – | – | – |
| CCn1cc(C(=O)O)c(=O)c2cc3c(cc21)OCO3 [OA, oxolinic acid] | – | 3 (≈ 0.784 µg/mL) | 6 (≈ 1.57 µg/mL) | 383 (≈ 100 µg/mL) | > 766 |
| O=C(O)/C=C/c1ccc(O)c(O)c1 [CA, caffeic acid] | – | > 1110 | > 1110 | > 1110 | > 1110 |

From paper PMC9055962 (RSC Advances, 2020)
